# Laboratory results as given in patent publication US9630961B2, “Arginine methyltransferase inhibitors and uses thereof” (Epizyme, Inc., priority 2013, dated 2017).
# Molecular target: T1, PRMT8 (Homo sapiens, UniProt Q9NR22)
# T1 construct: Full-length human PRMT8 (NM_019854.4) isoform 1 transcript clone; made in house; host or cells: E. coli BL21(DE3) Gold
# Assay: PRMT8 Biochemical Assay (3H-SAM Flashplate, peptide substrate)
# Settings: 30 min preincubation, room temperature
# Excerpt: S-adenosylmethionine (SAM), S-adenosylhomocysteine (SAH), bicine, Tween20, dimethylsulfoxide (DMSO), bovine skin gelatin (BSG), isopropyl-β-D-thiogalactopyranoside (IPTG), and Tris(2-carboxyethyl)phosphine hydrochloride solution (TCEP) were purchased from Sigma-Aldrich at the highest level of purity possible. ^3H-SAM was purchase from American Radiolabeled Chemicals with a specific activity of 80 Ci/mmol. 384-well streptavidin Flashplates were purchased from PerkinElmer.
# Peptide representative of human histone H4 residues 31-45 was synthesized with an N-terminal linker-affinity tag motif and a C-terminal amide cap by 21st Century Biochemicals. The peptide was purified by high-performance liquid chromatography (HPLC) to greater than 95% purity and confirmed by liquid chromatography mass spectrometry (LC-MS). The sequence was Biot-Ahx-[…]-amide (SEQ ID NO.:8).
# The resulting construct encodes an N-terminal GST tag and a thrombin cleavage sequence ([…] […] […] […]) (SEQ ID NO.:9) fused directly to Met 1 of PRMT8.
# E. coli (BL21(DE3) Gold, Stratagene) made competent by the CaCl2 method were transformed with the PRMT8 construct and ampicillin selection. Protein over-expression was accomplished by growing the PRMT8 expressing E. coli clone and inducing expression with 0.3 mM IPTG at 16° C. The culture was grown for 12 hours, harvested by centrifugation, and stored at −80° C. for purification.
# The column was washed with 50 mM phosphate buffer, 100 mM NaCl, 5% glycerol, 5 mM (3-mercaptoethanol, pH 7.8 and PRMT8 was eluted by 100 mM phosphate in the same buffer. Protein was concentrated and buffer was exchanged to 50 mM Tris, 300 mM NaCl, 10% glycerol, 5 mM β-mercaptoethanol, pH 7.8 by ultrafiltration. The purity of recovered protein was 89%.
# General Procedure for PRMT8 Enzyme Assays on Peptide Substrates.
# The assays were all performed in a buffer consisting of 20 mM Bicine (pH=7.6), 1 mM TCEP, 0.005% BSG, and 0.002% Tween 20, prepared on the day of use. Compounds in 100% DMSO (1 ul) were spotted into a polypropylene 384-well V-bottom plates (Greiner) using a Platemate Plus outfitted with a 384-channel head (Thermo Scientific). DMSO (1 ul) was added to Columns 11, 12, 23, 24, rows A-H for the maximum signal control and 1 ul of SAH, a known product and inhibitor of PRMT8, was added to columns 11, 12, 23, 24, rows I-P for the minimum signal control. A cocktail (40 ul) containing the PRMT8 enzyme was added by Multidrop Combi (Thermo-Fisher). The compounds were allowed to incubate with PRMT8 for 30 min at room temperature, then a cocktail (10 ul) containing ^3H-SAM and peptide was added to initiate the reaction (final volume=51 ul). The final concentrations of the components were as follows: PRMT8 was 1.5 nM, ^3H-SAM was 50 nM, non-radiolabeled SAM was 550 nM, peptide was 150 nM, SAH in the minimum signal control wells was 1 mM, and the DMSO concentration was 2%. The assays were stopped by the addition of non-radiolabeled SAM (10 ul) to a final concentration of 400 uM, which dilutes the ^3H-SAM to a level where its incorporation into the peptide substrate is no longer detectable. 50 ul of the reaction in the 384-well polypropylene plate was then transferred to a 384-well Flashplate and the biotinylated peptides were allowed to bind to the streptavidin surface for at least 1 hour before being washed once with 0.1% Tween20 in a Biotek ELx405 plate washer. The plates were then read in a PerkinElmer TopCount plate reader to measure the quantity of ^3H-labeled peptide bound to the Flashplate surface, measured as disintegrations per minute (dpm) or alternatively, referred to as counts per minute (cpm).
# Where dpm=disintegrations per minute, cmpd=signal in assay well, and min and max are the respective minimum and maximum signal controls.
# Where top and bottom are the normally allowed to float, but may be fixed at 100 or 0 respectively in a 3-parameter fit. […]
# T1 sequence (Q9NR22 whole entry, canonical isoform): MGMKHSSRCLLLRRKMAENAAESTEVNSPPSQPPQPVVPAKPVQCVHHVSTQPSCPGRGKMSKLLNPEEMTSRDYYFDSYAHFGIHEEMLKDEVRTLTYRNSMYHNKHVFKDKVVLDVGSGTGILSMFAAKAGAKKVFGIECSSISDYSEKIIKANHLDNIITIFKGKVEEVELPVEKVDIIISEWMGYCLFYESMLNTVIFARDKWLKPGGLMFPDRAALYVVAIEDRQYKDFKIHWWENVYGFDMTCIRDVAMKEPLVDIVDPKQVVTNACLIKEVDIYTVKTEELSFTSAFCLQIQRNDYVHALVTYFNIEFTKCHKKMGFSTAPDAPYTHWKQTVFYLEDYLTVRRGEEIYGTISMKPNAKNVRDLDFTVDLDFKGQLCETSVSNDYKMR
row,SMILES,IC50 [µM]
1,CN(CCN)Cc1c[nH]nc1-c1ccsc1 [Compound 3],1.01 to 3
2,CN(CCN)Cc1c[nH]nc1-c1cccs1 [Compound 5],3.01 to 10
3,CN(CCN)Cc1c[nH]nc1-c1cc[nH]n1 [Compound 14],≥ 10
4,"CN(CCN)Cc1c[nH]nc1-c1ccc2[nH]ncc2c1 [Compound 27, N^1-((3-(1H-indazol-5-yl)-1H-pyrazol-4-yl)methyl)-N^1-methylethane-1,2-diamine]",0.101 to 1
5,CN(CCN)Cc1c[nH]nc1-c1ccc2ncnn2c1 [Compound 20],1.01 to 3
6,CN(CCN)Cc1c[nH]nc1-c1cccc2[nH]ncc12 [Compound 30],3.01 to 10
7,COc1ncc(-c2n[nH]cc2CN(C)CCN)cn1 [Compound 11],1.01 to 3
8,CN(CCN)Cc1c[nH]nc1-c1ccc2scnc2c1 [Compound 9],0.101 to 1
9,CN(CCN)Cc1c[nH]nc1-c1cnc(C2CC2)nc1 [Compound 28],1.01 to 3
10,Cc1noc(C)c1-c1n[nH]cc1CN(C)CCN [Compound 10],≥ 10
11,"CN(CCN)Cc1c[nH]nc1-c1ccc2nccn2c1 [Compound 21, N^1-((3-(imidazo[1,2-a]pyridin-6-yl)-1H-pyrazol-4-yl)methyl)-N^1-methylethane-1,2-diamine]",0.101 to 1
12,CN(CCN)Cc1c[nH]nc1-c1ccco1 [Compound 6],3.01 to 10
13,CN(CCN)Cc1c[nH]nc1-c1ccc[nH]1 [Compound 29],3.01 to 10
14,CN(CCN)Cc1c[nH]nc1-c1cnc2[nH]ccc2c1 [Compound 13],0.101 to 1

# Further lines, results first:
row,IC50 [µM],SMILES
1,1.01 to 3,CN(CCN)Cc1c[nH]nc1-c1cnn(CCO)c1 [Compound 18]
2,0.101 to 1,CN(CCN)Cc1c[nH]nc1-c1cnn(-c2ccccc2)c1 [Compound 17]
3,3.01 to 10,CN(CCN)Cc1c[nH]nc1-c1ccnn1C [Compound 15]
4,3.01 to 10,CN(CCN)Cc1c[nH]nc1-c1cnn(C)c1 [Compound 8]
5,1.01 to 3,CN(CCN)Cc1c[nH]nc1-c1ccoc1 [Compound 7]
6,0.101 to 1,"CN(CCN)Cc1c[nH]nc1-c1cnn(Cc2ccccc2)c1 [Compound 24, N^1-((1′-benzyl-3,4′-bi(1H-pyrazol)-4-yl)methyl)-N^1-methylethane-1,2-diamine]"
7,1.01 to 3,CN(CCN)Cc1c[nH]nc1-c1cn[nH]c1 [Compound 12]
8,0.101 to 1,"CN(CCN)Cc1c[nH]nc1-c1ccc2cnn(C)c2c1 [Compound 19, N^1-methyl-N^1-((3-(1-methyl-1H-indazol-6-yl)-1H-pyrazol-4-yl)methyl)ethane-1,2-diamine]"
9,0.101 to 1,"CC(C)Cn1cc(-c2n[nH]cc2CN(C)CCN)cn1 [Compound 23, N^1-((2′-isobutyl-3,4′-bi(1H-pyrazol)-4-yl)methyl)-N^1-methylethane-1,2-diamine]"
10,0.101 to 1,CCn1cc(-c2n[nH]cc2CN(C)CCN)cn1 [Compound 16]
11,1.01 to 3,CN(CCN)Cc1c[nH]nc1-c1cncnc1 [Compound 4]
12,0.101 to 1,CC(C)n1cc(-c2n[nH]cc2CN(C)CCN)cn1 [Compound 22]
